Common to all, as to format: cell-based
In series [1] the test system is PAXF1657 control empty vector. As to the kind of experiment: 7-day CellTiter-Glo anti-proliferative assay. The conditions noted are these: for Emax: 168 h, read-out: Maximum % Growth inhibition relative to DMSO, geometric mean; for GI50: read-out: GI50, geometric mean. As to the method:
(§1) Cell lines were seeded into tissue culture treated, white-walled, 96-well plates at a density of 500 cells/well in RPM11640 media supplemented with 10% H.I. FBS and penicillin/streptomycin. Plates were incubated overnight at 37° C., 5% CO2 to allow cells to adhere to the wells. GRK2 small molecule antagonists were added to the cells using a ten-point or five-point dilution series with a final concentration ranging from […] in 0.1% DMSO. At the time of compound addition, a set of plates that were not treated with compounds were collected and cell viability was measured using CellTiter-Glo (Promega). CellTiter-Glo reagent was added to the plates and luminescence was measured using a Biotek Synergy plate reader. The compound treated cells were incubated for 3 days at 37° C., 5% CO2. The media was then aspirated from each well and replaced with fresh media containing GRK2 small molecule antagonists. The compound treated cells were then incubated for another 4 days at 37° C., 5% CO2 and cell viability was assessed at the end of the 7-day compound treatment by CellTiterGlo.
A general note: In ATP-based viability assays light output follows the ATP content of the culture.

In series [2] the test system is PAXF1657 stably overexpressing GRK2 cDNA. As to the kind of experiment: 7-day CellTiter-Glo anti-proliferative assay. Particulars: PAXF1657, sgNTC, pReceiver-GRK2, 5 or 10 point dose curve; for Emax: 168 h, read-out: Maximum % Growth inhibition relative to DMSO, geometric mean; for GI50: read-out: GI50, geometric mean. As to the method:
as §1

A further series has as its system PAXF1657. As to the kind of experiment: RFP/GFP competition assay, doxycycline-induced GRK2 knockout. As for the experimental part: (§2) Next, experiments were performed to evaluate whether GRK2 knockout induced by doxycycline treatment results in a proliferation defect in pancreatic cancer cells. Pancreatic cancer cell lines expressing GRK2 sgRNAs as well as RFP were plated in a ratio of 1:1 with GFP expressing pancreatic cancer cells. Co-plated cells were cultured in the presence or absence of 100 ng/ml doxycycline over the course of 21 days, and the percentage of GFP and RFP-expressing cells was measured over time.

In series [3] the test system is Grk2 protein. As to the kind of experiment: Western Blot of Grk2 levels in PAXF1657 lines re-expressing cleavage-resistant Grk2 wild-type or kinase-dead cDNA. Particulars: PAXF1657 expressing the sgRNA, cDNA Empty vector; for GRK2/GAPDH / GRK2 Adj. Vol. (Int): +dox. The text has this:
(§3) To test whether the Grk2 sgRNAs act through targeting Grk2, and to test whether the anti-proliferative effect results from loss of the Grk2 kinase activity, Grk2 sgRNA expressing PAXF1657 cell lines overexpressing Cas9/sgRNA-cleavage-resistant Grk2 wild-type or kinase-dead cDNA constructs were generated. Re-expression of Cas9/sgRNA-cleavage-resistant Grk2 wild-type or kinase-dead cDNA constructs led to increased Grk2 protein levels, as measured by Western Blot analysis and shown in Table 18.
On the technique in general: In western blotting, separated proteins are transferred to a membrane and probed.

The next series concerns PAXF1657 cells. The series can be described thus: Growth (RFP/GFP ratio) of sgGrk2 PAXF1657 lines re-expressing Grk2 wild-type or kinase-dead cDNA. The conditions noted are these: for sgRNA-induced growth inhibition on re-expression of Grk2 wild-type cDNA: cleavage-resistant Grk2 wild-type cDNA. As to the method: as §2, §3
Series [4] concerns Grk2 protein. As to the kind of experiment: Western Blot of Grk2 levels after doxycycline-induced sgRNA expression. The conditions noted are these: PAXF1657, day 7, +dox. As to the method: To validate the findings from the CRISPR screen, Cas9-expressing pancreatic cell lines were generated that express doxycycline inducible sgRNAs targeting GRK2. Treatment of these cells with 100 ng/ml doxycycline for 3, 7 or 10 days induced a time-dependent depletion of Grk2 protein, confirming the on-target efficacy of the sgRNAs.

The test system of series [5] is sgGrk2-expressing PAXF1657 cells. The series can be described thus: Colony formation assay in sgGrk2-expressing cells (target specificity). Particulars: PAXF1657, DMSO treatment; for Rel +dox: sgRNA induced (+dox). As to the method:
To assess the target specificity of the GRK2 small molecule antagonist of Formula III-26, sgGRK2-expressing cells were treated with the compound of Formula III-26. If GRK2 knockout is complete and the compound of Formula III-26 inhibits only GRK2, the addition of the compound of Formula III-26 should not induce any additional growth defect compared to sgRNA KO alone. […] This is potentially due to the lower GRK2 knockout efficiency that can be achieved in PAXF1657 compared to Miapaca2, as shown in Table 16.

Series [6] deals with PAXF1657 stable clone of GRK2 knockout. The series can be described thus: 7-day CellTiter-Glo anti-proliferative assay. The conditions noted are these: PAXF1657, sgGRK2 #2 clonal KO, no cDNA, 10 point dose curve; for GI50: read-out: GI50, geometric mean. As to the method:
as §1

Where [7] appears, read: PAXF1657, sgNTC, pReceiver-empty vector, 5 or 10 point dose curve.
[8] abbreviates: PAXF1657, day 3, 100 ng/ml doxycycline.
The mark [9] stands for this setting: PAXF1657, day 7, 100 ng/ml doxycycline.
[10] abbreviates: PAXF1657, day 10, 100 ng/ml doxycycline.
Setting [11] is: PAXF1657, day 14, 100 ng/ml doxycycline.
[12] abbreviates: PAXF1657, day 17, 100 ng/ml doxycycline.
[13] abbreviates: PAXF1657, day 21, 100 ng/ml doxycycline.

Read-outs that look alike come from different tables or passages of the source.

In the case of `Fc1ccc([C@@H]2CCNC[C@H]2COc2ccc3[nH]ncc3c2)cc1CNCc1ccn[nH]1` [Compound of Formula II-33], in series [1] (setting [7]), the Emax is 42.7% and the GI50 is 6.27 µM. In addition, in series [2], the Emax is 0% and the GI50 is more than 10 µM.

For the compound “sgGrk2-2: "sgGrk2-2 (SEQ ID NO: 3)"; "doxycycline inducible sgRNAs targeting GRK2" (guide GGTCCCGGTAGACCACGAAG; expressed or natural sequence)”, the “RFP/GFP ratio +dox normalized to RFP/GFP ratio −dox” value with PAXF1657 (setting [8]) came to 1.00; in the series with PAXF1657 (setting [9]), 0.89; with PAXF1657 (setting [10]) it was 0.76; with PAXF1657 (setting [11]), 0.69; in the series with PAXF1657 (setting [12]) it was 0.57; in the series with PAXF1657 (setting [13]), 0.44. Also, the “GRK2/GAPDH normalized to −dox” value in the series with Grk2 protein [3] is listed as −0.24; in the series with Grk2 protein [4], 0.20. Besides, the GRK2/GAPDH with Grk2 protein [3] is reported as −0.01. Moreover, the “GRK2 Adj. Vol. (Int)” value in the series with Grk2 protein [3] is −189,385.63. In the series on PAXF1657 cells (cleavage-resistant Grk2 kinase-dead cDNA), the “sgRNA-induced growth inhibition on re-expression of Grk2 kinase-dead cDNA” value was “did not”. Also, the “sgRNA-induced growth inhibition on re-expression of Grk2 wild-type cDNA” value in the series with PAXF1657 cells was “reduced the sgRNA-induced growth inhibition”. In addition, the GRK2/GAPDH ratio with Grk2 protein [4] is on record as 0.06. In addition, the “GRK2 Avg. Intensity” value in the series with Grk2 protein [4] was 2,133,921.03. Besides, in series [5], the “Difference between rel +dox and −dox signal” value is given as 0.21. For the same compound, the “Rel +dox” value in series [5] was found to be 0.79.

Consider `Cn1c(CNc2cccc(C(=O)NCc3c(F)cccc3F)c2)nnc1-c1ccncn1` [Compound of Formula III-31], for which, in series [1] (setting [7]), the Emax came out at 31.6% and the GI50 was more than 10 µM. In series [2], the Emax amounted to 29.8% and the GI50 is more than 10 µM.

As to `O=C(NCc1ccccc1C(F)(F)F)c1cccc(NCc2nnc(-c3ccncc3)n2CCO)c1` [Compound of Formula III-54], in series [1] (setting [7]), the Emax was 89% and the concentration for 50% growth inhibition (GI50) was found to be 2.52 µM. For the same compound, in series [2], the Emax worked out at 87.3% and the GI50 is 2.71 µM.

Turning to `COc1ccccc1CNC(=O)c1cccc(NCc2nnc(-c3ccncc3)[nH]2)c1` [Compound of Formula III-28], the Emax in series [1] (setting [7]) came out at 76.8%; in series [2], 64.7%. Also, the GI50 in series [1] (setting [7]) amounted to 0.653 µM; in series [6], 17.9 µM; in series [2], 14.7 µM. In series [6], the “Maximum % Growth inhibition relative to DMSO, geometric mean” value is 78.8%.

For the compound `O=C(NCc1ccccc1C(F)(F)F)c1cccc(NCc2nnc3n2CCOc2cnccc2-3)c1` [Compound of Formula III-55], the values for the Emax in series [1] (setting [7]) and in series [2] were 82.3% and 85.9%, respectively. The 50% growth inhibitory concentration (GI50) in series [1] (setting [7]) is 0.11 µM; in series [2], 0.17 µM.

For `CCCn1c(CNc2cccc(C(=O)NCc3ccccc3C(F)(F)F)c2)nnc1-c1ccncn1` [Compound of Formula III-35], in series [1] (setting [7]), the Emax was determined as 83.6% and the 50% growth inhibitory concentration (GI50) stood at 0.68 µM. Besides, in series [2], the Emax was determined as 81.4% and the GI50 is 0.614 µM.

Turning to `O=C(NCc1c(F)cccc1F)c1cccc(NCc2nnc3n2CCOc2cnccc2-3)c1` [Compound of Formula III-56], in series [1] (setting [7]), the Emax is 46.5% and the GI50 is more than 10 µM. In addition, in series [2], the Emax worked out at 28.3% and the GI50 was more than 10 µM.

For “sgGrk2-3: "sgGrk2-3 (SEQ ID NO: 4)"; "doxycycline inducible sgRNAs targeting GRK2" (guide GCACCCCAGAGAGAACCAGT; expressed or natural sequence)”, the “RFP/GFP ratio +dox normalized to RFP/GFP ratio −dox” value with PAXF1657 (setting [8]) worked out at 0.92; with PAXF1657 (setting [9]), 0.83; in the series on PAXF1657 (setting [10]), 0.64; in the series with PAXF1657 (setting [11]), 0.44; in the series with PAXF1657 (setting [12]) it was 0.27; in the series on PAXF1657 (setting [13]) it was 0.24. The “GRK2/GAPDH normalized to −dox” value in the series on Grk2 protein [3] is on record as −2.47; with Grk2 protein [4], 0.28. The GRK2/GAPDH in the series on Grk2 protein [3] was −0.04. Also, the “GRK2 Adj. Vol. (Int)” value with Grk2 protein [3] is recorded as −514,147.69. Moreover, the “sgRNA-induced growth inhibition on re-expression of Grk2 wild-type cDNA” value with PAXF1657 cells is listed as “less efficient”. Besides, the GRK2/GAPDH ratio with Grk2 protein [4] was 0.16. In addition, the “GRK2 Avg. Intensity” value with Grk2 protein [4] was 2,026,964.66. In addition, the “Difference between rel +dox and −dox signal” value in series [5] amounted to 0.36. Further, the “Rel +dox” value in series [5] is on record as 0.64.

On to `O=C(NCc1[nH]nc2ccccc12)c1cc([C@@H]2CCNC[C@H]2COc2ccc3c(c2)OCO3)ccc1F` [Compound of Formula II-35], for which, in series [1] (setting [7]), the GI50 came out at 3.37 µM.

Consider `O=C(NCc1ccccc1)c1cccc(NCc2nnc(-c3ccncc3)[nH]2)c1` [Compound of Formula III-30], for which, in series [1] (setting [7]), the Emax is 73.1% and the GI50 was 4.91 µM. Also, in series [6], the “Maximum % Growth inhibition relative to DMSO, geometric mean” value came to 63.5% and the GI50 is more than 30 µM. Also, in series [2], the Emax worked out at 65.5% and the GI50 is 3.4 µM.

As for `O=C(NCc1cc[nH]n1)c1cc([C@@H]2CCNC[C@H]2COc2ccc3c(c2)OCO3)ccc1F` [Compound of Formula II-26], the Emax came to 43.3% in series [1] (setting [7]) and 25.5% in series [2]. The GI50 in series [1] was 1.49 µM; in series [2], more than 10 µM.

What is called GI50 is the concentration that inhibits growth by half.

For the origin of these results see patent US20230035892A1, “METHODS AND COMPOSITIONS FOR TREATING CANCER” (Flagship Pioneering Innovations V, Inc., priority 2019, published 2023).
